Patent US20050180991A1, “Hypotensive agent and food” (priority 2004, published 2005)

Tests used:
[1] = test system: SHR (spontaneously hypertensive rat); test: Systolic blood pressure by the tail cuff method in SHR rats; assay type: in vivo; conditions: mean±SD; for Blood pressure (mmHg) Before dosing: n=10, baseline in acclimatization period; for Blood pressure (mmHg) 2nd dosing week: n=10, oral once daily, CM6271 300 mg/kg, hydralazine 5 mg/kg, 23 to 25 hours after dosing in 2nd dosing week, *p<0.05, **p<0.01 vs. control
Method: (§1) For statistical analysis of blood pressure, pulse rate and body weight data, Dunnett test was used to make intergroup comparisons, and the level of significance was less than 5% (p<0.05) and less than 1% (p<0.01).
(§2) Systolic blood pressure and pulse rate were measured in all animals by the tail cuff method using an automated noninvasive sphygmomanometer (BP-98A, Softron Co., Ltd.) once during the acclimatization period and 23 to 25 hours after dosing in the second dosing week. Figures in Table 2 represent mean±SD.

[2] = Body weight of SHR rats during daily oral dosing; assay type: in vivo, rat; conditions: n=10, oral once daily, CM6271 300 mg/kg, hydralazine 5 mg/kg
Excerpt: Figures in Table 1 represent mean±SD (standard deviation).

[3] = test system: SHR (spontaneously hypertensive rat); test: Pulse rate by the tail cuff method in SHR rats; assay type: in vivo; conditions: mean±SD; for Pulse rate (bpm) Before dosing: n=10, baseline in acclimatization period; for Pulse rate (bpm) 2nd dosing week: n=10, oral once daily, CM6271 300 mg/kg, hydralazine 5 mg/kg, 23 to 25 hours after dosing in 2nd dosing week
Method: as §1, §2

[4] = test system: SHR (spontaneously hypertensive rat); conditions: SHR rats, observed once daily at dosing

## NNc1nncc2ccccc12 [Hydralazine, hydralazine]
[1]
  Blood pressure (mmHg) Before dosing: 164.9 ± 8.8 mmHg
  Blood pressure (mmHg) 2nd dosing week: 138.4 ± 12.1** mmHg
[1]; listed as hydralazine
  Blood pressure (mmHg) Before dosing: 164.9 mmHg
  Blood pressure (mmHg) 2nd dosing week: 138.4 mmHg
[2]; Day 15, mean±SD
  Body weight (g) Day 15: 261.5 ± 13.7 g
[2]; Day 22, mean±SD
  Body weight (g) Day 22: 276.1 ± 12.8 g
[3]
  Pulse rate (bpm) Before dosing: 401.3 ± 19.4 bpm
  Pulse rate (bpm) 2nd dosing week: 423.6 ± 31.9 bpm
[3]; listed as hydralazine
  Pulse rate (bpm) Before dosing: 401.3 bpm
  Pulse rate (bpm) 2nd dosing week: 423.6 bpm
[4]
  General observations: Soft stools were observed in some animals
